Source: publication PMC12974487, “Inhibition of FicD-mediated AMPylation and deAMPylation by isoprenoid diphosphates” (Proceedings of the National Academy of Sciences of the …, 2026)
Where a chain is given by its changes, count along the chain named. pKd: −log10 of the molar value.

Legend:
FicD^WT [1] = target: T1, FicD^WT (Homo sapiens, UniProt Q9BVA6); parameters: method as in PMID 25435325; settings: cited from earlier work
T1 construct: soluble ER luminal domain (residues 105 to 458) of wild-type human FicD; 6xHis-Sumo (N, cleaved yes); made in house; host or cells: Rosetta(DE3) E. coli
T1 sequence (Q9BVA6 105-458): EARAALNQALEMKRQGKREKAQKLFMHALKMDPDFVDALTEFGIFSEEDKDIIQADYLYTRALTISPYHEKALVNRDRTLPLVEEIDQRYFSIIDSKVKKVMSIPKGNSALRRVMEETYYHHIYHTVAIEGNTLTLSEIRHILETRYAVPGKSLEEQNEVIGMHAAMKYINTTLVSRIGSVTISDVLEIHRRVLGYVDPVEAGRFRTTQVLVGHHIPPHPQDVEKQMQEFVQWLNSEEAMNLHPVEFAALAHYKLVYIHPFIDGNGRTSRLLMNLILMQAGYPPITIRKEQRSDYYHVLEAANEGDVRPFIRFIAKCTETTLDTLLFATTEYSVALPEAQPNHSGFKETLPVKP

FicD^E234G, L258D = target: T2, FicD^E234G, L258D (Homo sapiens, UniProt Q9BVA6, E234G/L258D); assay: DSF thermal shift with FicD^E234G, L258D; type: binding
T2 construct: Wild-type FicD (residues 105-458) and all mutants were expressed as N-terminal 6xHis-Sumo fusions; 6xHis-Sumo (N, cleaved yes); made in house; host or cells: Rosetta(DE3) E. coli
T2 sequence (Q9BVA6 105-458 E234G/L258D): T1 sequence (Q9BVA6 105-458) with E130G, L154D

FicD^WT [2] = target: T1, FicD^WT; assay: Total (intact) mass analysis of FicD^WT incubated with FPP; settings: 50uM FPP, 5mM MgCl2
From the text: To reveal the mechanism of FicD inhibition by FPP, we leveraged the FicD^E234G mutant for structural studies. We soaked FPP into crystals of the FicD^E234G variant and solved the ligand-bound structure (Fig. 5 A and B). […] The diphosphate group of FPP closely overlapped with the ADP diphosphate when superimposed with a FicD^E234G-ADP structure (Fig. 5 A, Left), and the hydrophobic isoprenyl groups of FPP overlap with the nucleoside in the active site binding pocket (Fig. 5 A, Right). The FPP diphosphate binds directly to the side chains of N369, R371, with the sidechain of D367 coordinating the Mg^2+ (Fig. 5B). These interactions mimic those observed between ADP/ATP and FicD ([26]). […] As previously noted, only GPP and FPP could bind to and inhibit FicD, but analogs of the isoprenoid-pyrophosphate metabolites (geraniol, GMP, farnesol, FMP, DMAPP, and MVAPP) could not (Fig. 2 B–D). Together, these observations indicate both the pyrophosphate head and the long isoprenoid tail of GPP/FPP contribute to the binding with FicD. […]
Intact mass analysis of proteins was performed by the UT Southwestern Proteomics Core. Intact protein samples were analyzed by LC/MS, using a Sciex X500B QTOF mass spectrometer operating in positive ion mode, coupled to an Agilent 1290 Infinity II HPLC. […]

Compound	pKd (FicD^WT [1])	binding to FicD^E234G, L258D by DSF (FicD^E234G, L258D; absence of MgCl2)	binding to FicD^E234G, L258D by DSF (FicD^E234G, L258D; presence of 5 mM MgCl2)	mass shift associated with putative FPP automodification (FicD^WT [2])
Nc1ncnc2c1ncn2[C@@H]1O[C@H](COP(=O)(O)OP(=O)(O)O)[C@@H](O)[C@H]1O [ADP]	5.82			
CC(C)=CCC/C(C)=C/CC/C(C)=C/COP(=O)(O)OP(=O)(O)O [FPP, farnesyl-pyrophosphate]		bound	bound	no mass shift
